Columns and labels:
[1] = Inhibition of NS5A in Hepatitis C virus subtype 1b replicon infected in human HuH7 cells assessed as reduction in viral replication
[2] = Inhibition of NS5A in Hepatitis C virus subtype 1a replicon infected in human HuH7 cells assessed as reduction in viral replication
[3] = Inhibition of NS5A in Hepatitis C virus subtype 2a replicon infected in human HuH7 cells assessed as reduction in viral replication

SMILES | EC50 [1] | EC50 [2] | EC50 [3]
CCCC(=O)Nc1ccc(-c2ccc(-c3c[nH]c([C@@H]4CCCN4C(=O)[C@H](NC(=O)OC)c4ccccc4)n3)cc2)cc1 | 0.34 nM | 2800 nM | 
CCCC(=O)Nc1ccc(-c2ccc(-c3c[nH]c([C@@H]4CCCN4C(=O)[C@H](NC(=O)N4CCCC4)c4ccccc4)n3)cc2)cc1 |  | 353 nM | 
COCc1ccc(C(=O)Nc2ccc(-c3ccc(-c4c[nH]c([C@@H]5CCCN5C(=O)[C@H](NC(=O)CCCNC(=O)OCc5ccccc5)c5ccccc5)n4)cc3)cc2)cc1 | 0.0042 nM | 3.5 nM | 
CCCC(=O)Nc1ccc(-c2ccc(-c3c[nH]c([C@@H]4CCCN4C(=O)[C@H](NC(=O)N4CC[C@@H](NC(=O)OCc5ccccc5)C4)c4ccccc4)n3)cc2)cc1 | 0.0048 nM | 1.1 nM | 
CCCC(=O)Nc1ccc(-c2ccc(-c3c[nH]c([C@@H]4CCCN4C(=O)[C@H](NC(=O)CCCNC(=O)OCc4ccccc4)c4ccccc4)n3)cc2)cc1 | 0.15 nM | 56 nM | 
COC1CCC(C(=O)Nc2ccc(-c3ccc(-c4c[nH]c([C@@H]5CCCN5C(=O)[C@H](NC(=O)CCCNC(=O)OCc5ccccc5)c5ccccc5)n4)cc3)cc2)CC1 (stereo partly drawn) | 0.0049 nM | 8.1 nM | 
COC1CCN(C(=O)Nc2ccc(-c3ccc(-c4c[nH]c([C@@H]5CCCN5C(=O)[C@H](NC(=O)CCCNC(=O)OCc5ccccc5)c5ccccc5)n4)cc3)cc2)CC1 | 0.02 nM | 2.3 nM | 
CCCC(=O)Nc1ccc(-c2ccc(-c3c[nH]c([C@@H]4CCCN4C(=O)[C@H](NC(=O)CCCc4ccccc4)c4ccccc4)n3)cc2)cc1 |  | 1300 nM | 
COC(=O)N[C@@H](C(=O)N1CCC[C@H]1c1nc(-c2ccc(-c3ccccc3)cc2)c[nH]1)c1ccccc1 | 57 nM | 2800 nM | 
CCCC(=O)Nc1ccc(-c2ccc(-c3c[nH]c([C@@H]4CCCN4C(=O)[C@H](NC(=O)c4cccc(NC(=O)OCc5ccccc5)c4)c4ccccc4)n3)cc2)cc1 | 0.076 nM | 44 nM | 
CCCC(=O)Nc1ccc(-c2ccc(-c3c[nH]c([C@@H]4CCCN4C(=O)[C@H](NC(=O)CCCCCCc4ccccc4)c4ccccc4)n3)cc2)cc1 |  | 642 nM | 
CCCC(=O)Nc1ccc(-c2ccc(-c3c[nH]c([C@@H]4CCCN4C(=O)[C@H](NC(=O)N4CC[C@H](NC(=O)OCc5ccccc5)C4)c4ccccc4)n3)cc2)cc1 | 0.037 nM | 82 nM | 
CCCC(=O)Nc1ccc(-c2ccc(-c3c[nH]c([C@@H]4CCCN4C(=O)[C@H](NC(=O)N4CCC[C@H](NC(=O)OCc5ccccc5)C4)c4ccccc4)n3)cc2)cc1 |  | 247 nM | 
COC1CCN(C(=O)Nc2ccc(-c3ccc(-c4c[nH]c([C@@H]5CCCN5C(=O)[C@H](NC(=O)N5CC[C@@H](NC(=O)OCc6ccccc6)C5)c5ccccc5)n4)cc3)cc2)CC1 | 0.028 nM | 0.039 nM | 0.018 nM
COC(=O)N[C@@H](C(=O)N1CCC[C@H]1c1ncc[nH]1)c1ccccc1 | > 10000 nM | > 10000 nM | 
COC(=O)N[C@@H](C(=O)N1CCC[C@H]1c1ncc(-c2ccc(-c3ccc(-c4cnc([C@@H]5CCCN5C(=O)[C@H](NC(=O)OC)c5ccccc5)[nH]4)cc3)cc2)[nH]1)c1ccccc1 | 0.014 nM | 0.098 nM | 
CCCC(=O)Nc1ccc(-c2ccc(-c3c[nH]c([C@@H]4CCCN4C(=O)[C@H](NC(=O)c4ccc(NC(=O)OCc5ccccc5)cc4)c4ccccc4)n3)cc2)cc1 |  | 131 nM | 
CCCC(=O)Nc1ccc(-c2ccc(-c3c[nH]c([C@@H]4CCCN4C(=O)[C@H](NC(=O)N4CC[C@@H](NC(=O)OC)C4)c4ccccc4)n3)cc2)cc1 | 0.043 nM | 353 nM | 
O=C(CCCNC(=O)OCc1ccccc1)N[C@@H](C(=O)N1CCC[C@H]1c1nc(-c2ccc(-c3ccc(NC(=O)c4ccccc4)cc3)cc2)c[nH]1)c1ccccc1 | 0.025 nM | 34 nM | 
CCCC(=O)Nc1ccc(-c2ccc(-c3c[nH]c([C@@H]4CCCN4C(=O)[C@H](NC(=O)c4ccccc4)c4ccccc4)n3)cc2)cc1 |  | 2400 nM | 
CCCC(=O)Nc1ccc(-c2ccc(-c3c[nH]c([C@@H]4CCCN4C(=O)[C@H](NC(=O)c4ccccc4NC(=O)OCc4ccccc4)c4ccccc4)n3)cc2)cc1 |  | 614 nM | 
CCCC(=O)Nc1ccc(-c2ccc(-c3c[nH]c([C@@H]4CCCN4C(=O)[C@H](NC(=O)N4CCC[C@@H](NC(=O)OCc5ccccc5)C4)c4ccccc4)n3)cc2)cc1 | 0.023 nM | 100 nM | 

Source: BindingDB's records for doi:10.1016/j.bmcl.2019.126932 (Japan Tobacco, 2020)
